Patent US9676782B2, “Substituted pyrazolo[1,5-a]pyrazines as negative allosteric modulators of metabotropic glutamate receptor 3” (Vanderbilt University, priority 2014, dated 2017)
Where two headings read alike, the source gives them in different places.

Key:
rat mGlu5 = rat mGlu5 (Rattus norvegicus (Rat), UniProt P31424); assay: mGlu5 Ca2+ flux assay; type: cell-based; conditions: for Fold selectivity (mGlu3 vs. mGlu5): ratio of rat mGlu5 EC50 or IC50 to rat mGlu3 IC50; for EC50: read-out: rat mGlu5 EC50 or IC50; for Emax at 30 µM: PAM, amplitude of response at 30 μM test compound as % of maximal response to glutamate, read-out: rat mGlu5 Glu max (%)
Experimental: (§1) The cells were grown overnight at 37° C. in the presence of 5% CO2. […] Dye was removed, 20 μL of assay buffer was added, and the plate was incubated for 5 minutes at room temperature. Ca^2+ flux was measured using the Functional Drug Screening System (FDSS7000, Hamamatsu, Japan). […] All test compounds were dissolved and diluted to a concentration of 10 mM in 100% DMSO. […] Calcium fluorescence measures were recorded as fold over basal fluorescence; raw data was then normalized to the maximal response to glutamate. […] The raw data file containing all time points was used as the data source in the analysis template. This was saved by the FDSS as a tab-delimited text file. Data were normalized using a static ratio function (F/F0) for each measurement of the total 360 values per well divided by each well's initial value. […] This is sufficient time to capture the peak amplitude of the cellular calcium response. […] EC50 values for test compounds were generated by fitting the normalized values versus the log of the test compound concentration (in mol/L) using a 4 parameter logistic equation where none of the parameters were fixed. Each of the three values collected at each concentration of test compound were weighted evenly.

rat mGlu3 = rat mGlu3 (Rattus norvegicus (Rat), UniProt P31422); assay: mGlu3 Ca2+ flux assay; type: cell-based; conditions: for remaining activity at 30 µM: amplitude of response at 30 μM test compound as % of maximal response to glutamate, read-out: rat mGlu3 Glu max (%); for IC50: read-out: rat mGlu3 IC50
Experimental: as §1, with “for 10” for “for 5”

[1] = NAM potency, decrease of glutamate EC80 response, >30,000 = no measurable activity, >10,000 = no plateau

Chain of rat mGlu5 (P31424 21-1203): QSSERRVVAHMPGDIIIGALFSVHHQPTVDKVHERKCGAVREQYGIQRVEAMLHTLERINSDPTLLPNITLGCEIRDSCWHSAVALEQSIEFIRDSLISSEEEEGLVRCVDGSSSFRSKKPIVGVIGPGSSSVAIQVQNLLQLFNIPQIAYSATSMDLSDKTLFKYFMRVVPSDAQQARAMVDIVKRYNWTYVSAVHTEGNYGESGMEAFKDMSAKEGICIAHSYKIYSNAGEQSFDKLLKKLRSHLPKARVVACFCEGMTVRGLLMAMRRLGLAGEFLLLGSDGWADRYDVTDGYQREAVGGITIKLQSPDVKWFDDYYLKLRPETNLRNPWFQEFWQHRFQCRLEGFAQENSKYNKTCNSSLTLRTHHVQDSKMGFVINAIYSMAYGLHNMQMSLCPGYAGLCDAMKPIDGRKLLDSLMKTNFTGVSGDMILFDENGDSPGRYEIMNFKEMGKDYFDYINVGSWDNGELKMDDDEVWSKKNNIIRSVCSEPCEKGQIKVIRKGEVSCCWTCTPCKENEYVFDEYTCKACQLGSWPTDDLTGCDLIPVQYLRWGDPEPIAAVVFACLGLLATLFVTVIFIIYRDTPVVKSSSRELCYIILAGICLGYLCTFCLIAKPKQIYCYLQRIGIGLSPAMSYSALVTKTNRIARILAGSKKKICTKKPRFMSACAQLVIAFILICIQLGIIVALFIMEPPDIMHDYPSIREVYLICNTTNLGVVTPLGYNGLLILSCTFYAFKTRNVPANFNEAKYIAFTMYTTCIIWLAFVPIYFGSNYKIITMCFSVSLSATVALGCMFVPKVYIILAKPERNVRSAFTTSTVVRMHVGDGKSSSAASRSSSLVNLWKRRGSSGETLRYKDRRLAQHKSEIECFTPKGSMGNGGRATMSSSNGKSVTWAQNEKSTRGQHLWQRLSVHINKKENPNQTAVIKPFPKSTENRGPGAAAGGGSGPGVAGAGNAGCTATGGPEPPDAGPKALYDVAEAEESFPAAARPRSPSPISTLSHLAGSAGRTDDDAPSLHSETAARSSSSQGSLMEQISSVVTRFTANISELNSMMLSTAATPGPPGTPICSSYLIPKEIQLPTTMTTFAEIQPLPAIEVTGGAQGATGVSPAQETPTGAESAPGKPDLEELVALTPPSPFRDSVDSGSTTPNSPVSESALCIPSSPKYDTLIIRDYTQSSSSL
Chain of rat mGlu3 (P31422 23-879): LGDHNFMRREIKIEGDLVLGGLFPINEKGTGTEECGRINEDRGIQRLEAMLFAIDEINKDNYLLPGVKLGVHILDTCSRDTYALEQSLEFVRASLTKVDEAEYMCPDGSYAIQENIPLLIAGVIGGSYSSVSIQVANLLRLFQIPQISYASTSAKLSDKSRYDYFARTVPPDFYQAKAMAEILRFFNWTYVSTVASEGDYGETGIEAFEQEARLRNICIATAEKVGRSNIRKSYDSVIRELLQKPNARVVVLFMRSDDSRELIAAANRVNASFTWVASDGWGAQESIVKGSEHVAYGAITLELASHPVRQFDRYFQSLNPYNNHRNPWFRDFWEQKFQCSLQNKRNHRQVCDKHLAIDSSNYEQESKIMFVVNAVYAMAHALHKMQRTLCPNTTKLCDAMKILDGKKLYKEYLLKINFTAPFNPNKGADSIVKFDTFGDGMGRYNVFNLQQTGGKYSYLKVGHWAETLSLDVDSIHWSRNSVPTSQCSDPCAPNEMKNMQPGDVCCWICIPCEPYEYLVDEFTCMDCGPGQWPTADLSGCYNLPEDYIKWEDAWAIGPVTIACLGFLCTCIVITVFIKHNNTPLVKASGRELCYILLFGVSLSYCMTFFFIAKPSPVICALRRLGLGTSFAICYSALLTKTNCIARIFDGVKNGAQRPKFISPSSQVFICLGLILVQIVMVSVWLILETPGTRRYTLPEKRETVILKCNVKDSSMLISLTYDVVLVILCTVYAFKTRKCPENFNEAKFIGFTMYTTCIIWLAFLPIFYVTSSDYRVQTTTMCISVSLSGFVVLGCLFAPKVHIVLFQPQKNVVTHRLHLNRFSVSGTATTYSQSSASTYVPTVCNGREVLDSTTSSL

CC(C)c1ccc(NCc2cc3n(n2)CCN(c2ccc(F)cc2)C3=O)cc1 [Compound 23, 5-(4-fluorophenyl)-2-(((4-isopropylphenyl)amino)methyl)-6,7-dihydropyrazolo[1,5-a]pyrazin-4(5H)-one]
Fold selectivity (mGlu3 vs. mGlu5) (rat mGlu5): >3
EC50 (rat mGlu5): > 30 µM
remaining activity at 30 µM (rat mGlu3): 28.9%
IC50 (rat mGlu3): > 10 µM

CS(=O)(=O)c1ccc(NCc2cc3n(n2)CCN(c2ccc(F)cc2)C3=O)cc1 [Compound 25, 5-(4-fluorophenyl)-2-(((4-(methylsulfonyl)phenyl)amino)methyl)-6,7-dihydropyrazolo[1,5-a]pyrazin-4(5H)-one]
Fold selectivity (mGlu3 vs. mGlu5) (rat mGlu5): >3
EC50 (rat mGlu5): > 30 µM
remaining activity at 30 µM (rat mGlu3): 66.9%
IC50 (rat mGlu3): > 10 µM

O=C1c2cc(CNc3cccc(F)c3F)nn2CCN1c1ccc(F)cc1 [Compound 27, 2-(((2,3-difluorophenyl)amino)methyl)-5-(4-fluorophenyl)-6,7-dihydropyrazolo[1,5-a]pyrazin-4(5H)-one]
Emax at 30 µM (rat mGlu5): 90.8%
Fold selectivity (mGlu3 vs. mGlu5) (rat mGlu5): 4.06
EC50 (rat mGlu5): 2.38 µM
IC50 (rat mGlu3; [1]): 0.586 µM
remaining activity at 30 µM (rat mGlu3): 2.82%

O=C1c2cc(CNc3ccc(F)cc3F)nn2CCN1c1ccc(F)cc1 [Compound 28, 2-(((2,4-difluorophenyl)amino)methyl)-5-(4-fluorophenyl)-6,7-dihydropyrazolo[1,5-a]pyrazin-4(5H)-one]
Emax at 30 µM (rat mGlu5): 80.6%
Fold selectivity (mGlu3 vs. mGlu5) (rat mGlu5): 1.21
EC50 (rat mGlu5): 1.51 µM
IC50 (rat mGlu3; [1]): 1.25 µM
remaining activity at 30 µM (rat mGlu3): 1.76%

O=C1c2cc(CNc3cc(F)ccc3F)nn2CCN1c1ccc(F)cc1 [Compound 29, 2-(((2,5-difluorophenyl)amino)methyl)-5-(4-fluorophenyl)-6,7-dihydropyrazolo[1,5-a]pyrazin-4(5H)-one]
Emax at 30 µM (rat mGlu5): 87.5%
Fold selectivity (mGlu3 vs. mGlu5) (rat mGlu5): 3.23
EC50 (rat mGlu5): 1.64 µM
IC50 (rat mGlu3; [1]): 0.508 µM
remaining activity at 30 µM (rat mGlu3): 2.45%

O=C1c2cc(CNc3cc(F)cc(F)c3)nn2CCN1c1ccc(F)cc1 [Compound 30, 2-(((3,5-difluorophenyl)amino)methyl)-5-(4-fluorophenyl)-6,7-dihydropyrazolo[1,5-a]pyrazin-4(5H)-one]
Emax at 30 µM (rat mGlu5): 102%
Fold selectivity (mGlu3 vs. mGlu5) (rat mGlu5): 8.73
EC50 (rat mGlu5): 6.44 µM
IC50 (rat mGlu3; [1]): 0.738 µM
remaining activity at 30 µM (rat mGlu3): 2.71%

O=C1c2cc(CNc3ccc(F)c(F)c3)nn2CCN1c1ccc(F)cc1 [Compound 31, 2-(((3,4-difluorophenyl)amino)methyl)-5-(4-fluorophenyl)-6,7-dihydropyrazolo[1,5-a]pyrazin-4(5H)-one]
Emax at 30 µM (rat mGlu5): 75.8%
Fold selectivity (mGlu3 vs. mGlu5) (rat mGlu5): 5.37
EC50 (rat mGlu5): 2.48 µM
IC50 (rat mGlu3; [1]): 0.462 µM
remaining activity at 30 µM (rat mGlu3): 2.02%

O=C1c2cc(CNc3c(F)cccc3F)nn2CCN1c1ccc(F)cc1 [Compound 32, 2-(((2,6-difluorophenyl)amino)methyl)-5-(4-fluorophenyl)-6,7-dihydropyrazolo[1,5-a]pyrazin-4(5H)-one]
Emax at 30 µM (rat mGlu5): 84.1%
Fold selectivity (mGlu3 vs. mGlu5) (rat mGlu5): 8.41
EC50 (rat mGlu5): 8.83 µM
IC50 (rat mGlu3; [1]): 1.05 µM
remaining activity at 30 µM (rat mGlu3): 1.25%

O=C1c2cc(CNc3c(F)cc(F)cc3F)nn2CCN1c1ccc(F)cc1 [Compound 33, 5-(4-fluorophenyl)-2-(((2,4,6-trifluorophenyl)amino)methyl)-6,7-dihydropyrazolo[1,5-a]pyrazin-4(5H)-one]
Emax at 30 µM (rat mGlu5): 89.7%
Fold selectivity (mGlu3 vs. mGlu5) (rat mGlu5): 0.87
EC50 (rat mGlu5): 1.11 µM
IC50 (rat mGlu3; [1]): 1.27 µM
remaining activity at 30 µM (rat mGlu3): 1.82%

O=C1c2cc(CNc3ccc(Cl)cc3F)nn2CCN1c1ccc(F)cc1 [Compound 34, 2-(((4-chloro-2-fluorophenyl)amino)methyl)-5-(4-fluorophenyl)-6,7-dihydropyrazolo[1,5-a]pyrazin-4(5H)-one]
Fold selectivity (mGlu3 vs. mGlu5) (rat mGlu5): >35
EC50 (rat mGlu5): > 30 µM
IC50 (rat mGlu3; [1]): 0.856 µM
remaining activity at 30 µM (rat mGlu3): 3.18%

Cc1ccc(NCc2cc3n(n2)CCN(c2ccc(F)cc2)C3=O)c(F)c1 [Compound 35, 2-(((2-fluoro-4-methylphenyl)amino)methyl)-5-(4-fluorophenyl)-6,7-dihydropyrazolo[1,5-a]pyrazin-4(5H)-one]
Emax at 30 µM (rat mGlu5): 97.4%
Fold selectivity (mGlu3 vs. mGlu5) (rat mGlu5): 5.97
EC50 (rat mGlu5): 4.77 µM
IC50 (rat mGlu3; [1]): 0.799 µM
remaining activity at 30 µM (rat mGlu3): 1.68%

Cc1cc(NCc2cc3n(n2)CCN(c2ccc(F)cc2)C3=O)ccc1F [Compound 36, 2-(((4-fluoro-3-methylphenyl)amino)methyl)-5-(4-fluorophenyl)-6,7-dihydropyrazolo[1,5-a]pyrazin-4(5H)-one]
Fold selectivity (mGlu3 vs. mGlu5) (rat mGlu5): >17
EC50 (rat mGlu5): > 30 µM
IC50 (rat mGlu3; [1]): 1.67 µM
remaining activity at 30 µM (rat mGlu3): 1.91%

O=C1c2cc(CNc3ccc(OC(F)F)cc3F)nn2CCN1c1ccc(F)cc1 [Compound 37, 2-(((4-(difluoromethoxy)-2-fluorophenyl)amino)methyl)-5-(4-fluorophenyl)-6,7-dihydropyrazolo[1,5-a]pyrazin-4(5H)-one]
Emax at 30 µM (rat mGlu5): 38.4%
Fold selectivity (mGlu3 vs. mGlu5) (rat mGlu5): >29
EC50 (rat mGlu5): > 10 µM
remaining activity at 30 µM (rat mGlu3): 2.57%
IC50 (rat mGlu3): 0.334 µM

O=C1c2cc(CNc3ccc(OC(F)F)c(F)c3)nn2CCN1c1ccc(F)cc1 [Compound 38, 2-(((4-(difluoromethoxy)-3-fluorophenyl)amino)methyl)-5-(4-fluorophenyl)-6,7-dihydropyrazolo[1,5-a]pyrazin-4(5H)-one]
Emax at 30 µM (rat mGlu5): 84.7%
Fold selectivity (mGlu3 vs. mGlu5) (rat mGlu5): 3.19
EC50 (rat mGlu5): 1.56 µM
IC50 (rat mGlu3; [1]): 0.489 µM
remaining activity at 30 µM (rat mGlu3): 2.28%

O=C1c2cc(CNc3ccc4c(c3)OC(F)(F)O4)nn2CCN1c1ccc(F)cc1 [Compound 39, 2-(((2,2-difluorobenzo[d][1,3]dioxol-5-yl)amino)methyl)-5-(4-fluorophenyl)-6,7-dihydropyrazolo[1,5-a]pyrazin-4(5H)-one]
Emax at 30 µM (rat mGlu5): 75.7%
Fold selectivity (mGlu3 vs. mGlu5) (rat mGlu5): >3.4
EC50 (rat mGlu5): > 10 µM
IC50 (rat mGlu3; [1]): 2.88 µM
remaining activity at 30 µM (rat mGlu3): 1.95%

C[C@@H]1CN(c2ccc(F)cc2)C(=O)c2cc(CNc3ccccc3)nn21 [Compound 40, (R)-5-(4-fluorophenyl)-7-methyl-2-((phenylamino)methyl)-6,7-dihydropyrazolo[1,5-a]pyrazin-4(5H)-one]
Emax at 30 µM (rat mGlu5): 34.4%
Fold selectivity (mGlu3 vs. mGlu5) (rat mGlu5): 3.49
EC50 (rat mGlu5): 4.81 µM
IC50 (rat mGlu3; [1]): 1.38 µM
remaining activity at 30 µM (rat mGlu3): 5.15%

C[C@H]1CN(c2ccc(F)cc2)C(=O)c2cc(CNc3ccccc3)nn21 [Compound 41, (S)-5-(4-fluorophenyl)-7-methyl-2-((phenylamino)methyl)-6,7-dihydropyrazolo[1,5-a]pyrazin-4(5H)-one]
Emax at 30 µM (rat mGlu5): 81.7%
Fold selectivity (mGlu3 vs. mGlu5) (rat mGlu5): 0.17
EC50 (rat mGlu5): 1.36 µM
IC50 (rat mGlu3; [1]): 8.11 µM
remaining activity at 30 µM (rat mGlu3): -2.27%

C[C@@H]1CN(c2ccc(F)cc2)C(=O)c2cc(CNc3ccccc3F)nn21 [Compound 42, (R)-5-(4-fluorophenyl)-2-(((2-fluorophenyl)amino)methyl)-7-methyl-6,7-dihydropyrazolo[1,5-a]pyrazin-4(5H)-one]
Emax at 30 µM (rat mGlu5): 71.4%
Fold selectivity (mGlu3 vs. mGlu5) (rat mGlu5): >11
EC50 (rat mGlu5): > 10 µM
IC50 (rat mGlu3; [1]): 0.871 µM
remaining activity at 30 µM (rat mGlu3): 0.89%

C[C@H]1CN(c2ccc(F)cc2)C(=O)c2cc(CNc3ccccc3F)nn21 [Compound 43, (S)-5-(4-fluorophenyl)-2-(((2-fluorophenyl)amino)methyl)-7-methyl-6,7-dihydropyrazolo[1,5-a]pyrazin-4(5H)-one]
Emax at 30 µM (rat mGlu5): 90.6%
Fold selectivity (mGlu3 vs. mGlu5) (rat mGlu5): 2.06
EC50 (rat mGlu5): 5.23 µM
IC50 (rat mGlu3; [1]): 2.54 µM
remaining activity at 30 µM (rat mGlu3): 1.61%

Cc1ccccc1NCc1cc2n(n1)[C@H](C)CN(c1ccc(F)cc1)C2=O [Compound 44, (R)-5-(4-fluorophenyl)-7-methyl-2-((o-tolylamino)methyl)-6,7-dihydropyrazolo[1,5-a]pyrazin-4(5H)-one]
Emax at 30 µM (rat mGlu5): 23.9%
Fold selectivity (mGlu3 vs. mGlu5) (rat mGlu5): >3.7
EC50 (rat mGlu5): > 10 µM
IC50 (rat mGlu3; [1]): 2.67 µM
remaining activity at 30 µM (rat mGlu3): -0.26%
